According to ChEMBL document CHEMBL5678810:

Columns and labels:
[1] = target: Dual specificity mitogen-activated protein kinase kinase 2 (Homo sapiens) (UniProt P36507); test: Inhibition of T7 bacteriophage fused human MEK2 at 10 uM by KINOMEscan analysis relative to control; values are per cent of control
[2] = target: Mitogen-activated protein kinase kinase kinase 10 (Homo sapiens) (UniProt Q02779); test: Inhibition of T7 bacteriophage fused human MLK2 at 10 uM by KINOMEscan analysis relative to control
[3] = target: Cyclin-dependent kinase 17 (Homo sapiens) (UniProt Q00537); test: Inhibition of T7 bacteriophage fused human PCTK2 at 10 uM by KINOMEscan analysis relative to control
[4] = target: Ephrin type-B receptor 6 (Homo sapiens) (UniProt O15197); test: Inhibition of T7 bacteriophage fused human EPHB6 at 10 uM by KINOMEscan analysis relative to control
[5] = target: Homeodomain-interacting protein kinase 3 (Homo sapiens) (UniProt Q9H422); test: Inhibition of T7 bacteriophage fused human HIPK3 at 10 uM by KINOMEscan analysis relative to control; values are per cent of control
[6] = target: MAP kinase-activated protein kinase 2 (Homo sapiens) (UniProt P49137); test: Inhibition of T7 bacteriophage fused human MAPKAPK2 at 10 uM by KINOMEscan analysis relative to control
[7] = target: Platelet-derived growth factor receptor beta (Homo sapiens) (UniProt P09619); test: Inhibition of T7 bacteriophage fused human PDGFRB at 10 uM by KINOMEscan analysis relative to control
[8] = target: Serine/threonine-protein kinase N2 (Homo sapiens) (UniProt Q16513); test: Inhibition of T7 bacteriophage fused human PKN2 at 10 uM by KINOMEscan analysis relative to control
[9] = test system: Mast/stem cell growth factor receptor Kit (Homo sapiens), P10721 [D816H]; test: Inhibition of T7 bacteriophage fused human KIT D816H mutant at 10 uM by KINOMEscan analysis relative to control
[10] = target: Mitogen-activated protein kinase kinase kinase 4 (Homo sapiens) (UniProt Q9Y6R4); test: Inhibition of T7 bacteriophage fused human MAP3K4 at 10 uM by KINOMEscan analysis relative to control
[11] = target: Citron Rho-interacting kinase (Homo sapiens) (UniProt O14578); test: Inhibition of T7 bacteriophage fused human CIT at 10 uM by KINOMEscan analysis relative to control; values are per cent of control
[12] = target: Serine/threonine-protein kinase PAK 2 (Homo sapiens) (UniProt Q13177); test: Inhibition of T7 bacteriophage fused human PAK2 at 10 uM by KINOMEscan analysis relative to control
[13] = target: Dual specificity tyrosine-phosphorylation-regulated kinase 1B (Homo sapiens) (UniProt Q9Y463); test: Inhibition of T7 bacteriophage fused human DYRK1B at 10 uM by KINOMEscan analysis relative to control; values are per cent of control
[14] = target: Phosphatidylinositol 4,5-bisphosphate 3-kinase catalytic subunit beta isoform (Homo sapiens) (UniProt P42338); test: Inhibition of T7 bacteriophage fused human PIK3CB at 10 uM by KINOMEscan analysis relative to control
[15] = target: Mitogen-activated protein kinase kinase kinase 13 (Homo sapiens) (UniProt O43283); test: Inhibition of T7 bacteriophage fused human LZK at 10 uM by KINOMEscan analysis relative to control
[16] = target: Mitogen-activated protein kinase 14 (Homo sapiens) (UniProt Q16539); test: Inhibition of T7 bacteriophage fused human p38-alpha at 10 uM by KINOMEscan analysis relative to control; values are per cent of control
[17] = target: Serine/threonine-protein kinase LATS2 (Homo sapiens) (UniProt Q9NRM7); test: Inhibition of T7 bacteriophage fused human LATS2 at 10 uM by KINOMEscan analysis relative to control; values are per cent of control
[18] = test system: Tyrosine-protein kinase ABL1 (Homo sapiens), P00519 [E255K]; test: Inhibition of T7 bacteriophage fused human phosphorylated ABL1 E255K mutant at 10 uM by KINOMEscan analysis relative to control
[19] = target: AP2-associated protein kinase 1 (Homo sapiens) (UniProt Q2M2I8); test: Inhibition of T7 bacteriophage fused human AAK1 at 10 uM by KINOMEscan analysis relative to control
[20] = test system: Proto-oncogene tyrosine-protein kinase receptor Ret (Homo sapiens), P07949 [M918T]; test: Inhibition of T7 bacteriophage fused human RET M918T mutant at 10 uM by KINOMEscan analysis relative to control
[21] = test system: Epidermal growth factor receptor (Homo sapiens), P00533 [UNDEFINED MUTATION]; test: Inhibition of T7 bacteriophage fused human EGFR S752-I759del mutant at 10 uM by KINOMEscan analysis relative to control; values are per cent of control
[22] = test system: Epidermal growth factor receptor (Homo sapiens), P00533 [T790M]; test: Inhibition of T7 bacteriophage fused human EGFR T790M mutant at 10 uM by KINOMEscan analysis relative to control; values are per cent of control
[23] = target: Mitogen-activated protein kinase 15 (Homo sapiens) (UniProt Q8TD08); test: Inhibition of T7 bacteriophage fused human ERK8 at 10 uM by KINOMEscan analysis relative to control
[24] = target: Cyclin-dependent kinase 8 (Homo sapiens) (UniProt P49336); test: Inhibition of T7 bacteriophage fused human CDK8 at 10 uM by KINOMEscan analysis relative to control
[25] = target: Inhibitor of nuclear factor kappa-B kinase subunit alpha (Homo sapiens) (UniProt O15111); test: Inhibition of T7 bacteriophage fused human IKK-alpha at 10 uM by KINOMEscan analysis relative to control
[26] = target: Phosphatidylinositol 4,5-bisphosphate 3-kinase catalytic subunit alpha isoform (Homo sapiens) (UniProt P42336); test: Inhibition of T7 bacteriophage fused human PIK3CA at 10 uM by KINOMEscan analysis relative to control
[27] = target: Bone morphogenetic protein receptor type-1A (Homo sapiens) (UniProt P36894); test: Inhibition of T7 bacteriophage fused human BMPR1A at 10 uM by KINOMEscan analysis relative to control
[28] = target: Rho-associated protein kinase 1 (Homo sapiens) (UniProt Q13464); test: Inhibition of T7 bacteriophage fused human ROCK1 at 10 uM by KINOMEscan analysis relative to control
[29] = target: Protein-tyrosine kinase 2-beta (Homo sapiens) (UniProt Q14289); test: Inhibition of T7 bacteriophage fused human PYK2 at 10 uM by KINOMEscan analysis relative to control
[30] = target: Discoidin domain-containing receptor 2 (Homo sapiens) (UniProt Q16832); test: Inhibition of T7 bacteriophage fused human DDR2 at 10 uM by KINOMEscan analysis relative to control

Chain of Phosphatidylinositol 4,5-bisphosphate 3-kinase catalytic subunit alpha isoform (Homo sapiens) (P42336 whole entry, the tested form may be a part, canonical isoform): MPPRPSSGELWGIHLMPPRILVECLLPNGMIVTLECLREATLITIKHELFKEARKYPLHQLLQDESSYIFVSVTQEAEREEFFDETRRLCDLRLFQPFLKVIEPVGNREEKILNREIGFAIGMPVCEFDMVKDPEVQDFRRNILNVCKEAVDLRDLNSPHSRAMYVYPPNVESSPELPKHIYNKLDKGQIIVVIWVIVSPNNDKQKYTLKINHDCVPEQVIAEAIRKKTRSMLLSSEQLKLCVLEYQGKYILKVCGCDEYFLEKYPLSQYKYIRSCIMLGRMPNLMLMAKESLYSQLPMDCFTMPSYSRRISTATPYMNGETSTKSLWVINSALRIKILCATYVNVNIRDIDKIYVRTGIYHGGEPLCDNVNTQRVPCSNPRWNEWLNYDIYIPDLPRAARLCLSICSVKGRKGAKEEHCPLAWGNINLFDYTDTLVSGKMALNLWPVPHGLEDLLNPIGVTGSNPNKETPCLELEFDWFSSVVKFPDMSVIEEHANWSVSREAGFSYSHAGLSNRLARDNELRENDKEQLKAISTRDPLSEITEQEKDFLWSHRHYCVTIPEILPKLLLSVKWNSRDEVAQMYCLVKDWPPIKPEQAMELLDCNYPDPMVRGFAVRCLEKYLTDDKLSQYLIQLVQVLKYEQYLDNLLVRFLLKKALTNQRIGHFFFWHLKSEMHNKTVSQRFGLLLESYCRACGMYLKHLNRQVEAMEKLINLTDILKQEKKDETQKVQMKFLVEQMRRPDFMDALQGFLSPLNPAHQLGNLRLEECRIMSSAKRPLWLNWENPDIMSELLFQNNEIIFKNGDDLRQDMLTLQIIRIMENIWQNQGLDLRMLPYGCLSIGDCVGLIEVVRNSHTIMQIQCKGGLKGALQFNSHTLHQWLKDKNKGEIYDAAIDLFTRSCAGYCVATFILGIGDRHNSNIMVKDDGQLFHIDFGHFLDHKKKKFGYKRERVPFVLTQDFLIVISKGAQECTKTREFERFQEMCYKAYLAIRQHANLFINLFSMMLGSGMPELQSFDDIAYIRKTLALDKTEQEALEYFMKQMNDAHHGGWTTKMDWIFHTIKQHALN
Chain of AP2-associated protein kinase 1 (Homo sapiens) (Q2M2I8 whole entry, looked up, the tested form may be a part): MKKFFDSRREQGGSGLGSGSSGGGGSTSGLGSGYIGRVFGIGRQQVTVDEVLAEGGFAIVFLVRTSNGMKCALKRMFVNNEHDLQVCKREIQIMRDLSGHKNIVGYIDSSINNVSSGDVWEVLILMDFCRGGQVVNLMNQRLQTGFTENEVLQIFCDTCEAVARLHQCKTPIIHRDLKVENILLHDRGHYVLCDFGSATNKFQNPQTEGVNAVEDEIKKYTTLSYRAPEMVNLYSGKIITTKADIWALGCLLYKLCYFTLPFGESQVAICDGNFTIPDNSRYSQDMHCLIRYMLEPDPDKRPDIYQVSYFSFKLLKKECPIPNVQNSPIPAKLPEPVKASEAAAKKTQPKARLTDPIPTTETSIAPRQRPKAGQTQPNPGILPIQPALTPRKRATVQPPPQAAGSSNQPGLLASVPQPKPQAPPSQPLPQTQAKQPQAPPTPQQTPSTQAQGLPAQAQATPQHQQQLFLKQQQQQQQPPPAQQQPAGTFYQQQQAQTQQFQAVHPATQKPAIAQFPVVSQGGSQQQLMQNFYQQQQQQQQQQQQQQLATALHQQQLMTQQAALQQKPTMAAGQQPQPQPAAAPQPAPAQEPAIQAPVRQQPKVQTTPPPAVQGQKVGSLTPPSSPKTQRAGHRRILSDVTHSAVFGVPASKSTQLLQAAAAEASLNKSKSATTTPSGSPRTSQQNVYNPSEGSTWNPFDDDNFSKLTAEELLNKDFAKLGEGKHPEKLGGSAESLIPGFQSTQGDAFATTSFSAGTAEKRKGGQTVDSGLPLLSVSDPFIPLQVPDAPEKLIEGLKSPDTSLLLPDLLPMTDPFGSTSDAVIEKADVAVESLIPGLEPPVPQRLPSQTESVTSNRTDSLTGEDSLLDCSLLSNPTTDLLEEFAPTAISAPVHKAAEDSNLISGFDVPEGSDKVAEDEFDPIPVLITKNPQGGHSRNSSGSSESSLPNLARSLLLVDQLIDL
Chain of Ephrin type-B receptor 6 (Homo sapiens) (O15197 whole entry, the tested form may be a part): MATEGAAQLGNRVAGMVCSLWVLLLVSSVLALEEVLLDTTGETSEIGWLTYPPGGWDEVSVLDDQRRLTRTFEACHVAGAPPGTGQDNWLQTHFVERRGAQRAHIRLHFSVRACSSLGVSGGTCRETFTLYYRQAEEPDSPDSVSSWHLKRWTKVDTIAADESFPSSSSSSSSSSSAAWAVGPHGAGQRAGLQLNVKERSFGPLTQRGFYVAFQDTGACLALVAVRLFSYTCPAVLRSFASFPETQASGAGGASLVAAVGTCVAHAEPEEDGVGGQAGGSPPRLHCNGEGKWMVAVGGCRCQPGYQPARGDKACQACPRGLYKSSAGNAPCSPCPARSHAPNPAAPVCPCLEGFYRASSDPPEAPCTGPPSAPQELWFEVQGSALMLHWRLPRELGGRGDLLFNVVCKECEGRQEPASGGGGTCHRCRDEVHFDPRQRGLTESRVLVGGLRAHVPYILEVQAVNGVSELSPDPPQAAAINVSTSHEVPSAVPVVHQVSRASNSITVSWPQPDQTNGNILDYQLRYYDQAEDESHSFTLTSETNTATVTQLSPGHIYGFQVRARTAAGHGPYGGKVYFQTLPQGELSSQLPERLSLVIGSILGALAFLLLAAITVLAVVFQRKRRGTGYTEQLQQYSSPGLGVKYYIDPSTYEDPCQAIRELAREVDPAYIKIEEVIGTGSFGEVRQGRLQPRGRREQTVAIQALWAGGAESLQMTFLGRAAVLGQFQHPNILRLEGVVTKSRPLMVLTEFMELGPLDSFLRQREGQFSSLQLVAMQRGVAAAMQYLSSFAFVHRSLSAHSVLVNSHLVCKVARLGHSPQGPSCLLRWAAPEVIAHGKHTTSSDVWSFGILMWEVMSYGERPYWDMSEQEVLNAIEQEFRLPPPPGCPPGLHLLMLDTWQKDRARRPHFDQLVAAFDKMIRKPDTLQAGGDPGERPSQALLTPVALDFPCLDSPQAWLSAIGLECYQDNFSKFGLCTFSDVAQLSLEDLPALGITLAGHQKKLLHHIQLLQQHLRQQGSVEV
Chain of Inhibitor of nuclear factor kappa-B kinase subunit alpha (Homo sapiens) (O15111 whole entry, the tested form may be a part, canonical isoform): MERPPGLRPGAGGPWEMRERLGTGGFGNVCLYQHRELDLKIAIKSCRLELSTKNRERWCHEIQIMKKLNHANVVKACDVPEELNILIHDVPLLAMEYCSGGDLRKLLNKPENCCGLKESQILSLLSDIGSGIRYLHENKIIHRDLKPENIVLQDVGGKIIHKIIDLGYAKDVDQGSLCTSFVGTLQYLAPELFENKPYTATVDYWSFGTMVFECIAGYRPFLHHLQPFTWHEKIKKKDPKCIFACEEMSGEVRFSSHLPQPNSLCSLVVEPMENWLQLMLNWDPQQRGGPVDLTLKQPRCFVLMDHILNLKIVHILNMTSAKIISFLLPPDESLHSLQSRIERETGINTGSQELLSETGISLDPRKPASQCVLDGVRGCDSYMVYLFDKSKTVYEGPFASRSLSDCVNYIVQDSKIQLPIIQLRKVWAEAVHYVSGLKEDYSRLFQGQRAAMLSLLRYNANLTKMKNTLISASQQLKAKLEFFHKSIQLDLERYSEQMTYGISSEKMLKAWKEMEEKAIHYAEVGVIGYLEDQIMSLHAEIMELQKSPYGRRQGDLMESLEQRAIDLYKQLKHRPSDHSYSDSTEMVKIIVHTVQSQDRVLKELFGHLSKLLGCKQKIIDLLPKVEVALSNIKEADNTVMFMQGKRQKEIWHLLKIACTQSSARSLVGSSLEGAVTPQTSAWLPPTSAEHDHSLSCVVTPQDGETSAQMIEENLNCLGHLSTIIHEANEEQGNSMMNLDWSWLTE
Chain of Proto-oncogene tyrosine-protein kinase receptor Ret (Homo sapiens), P07949 [M918T] (P07949 whole entry M918T, the tested form may be a part): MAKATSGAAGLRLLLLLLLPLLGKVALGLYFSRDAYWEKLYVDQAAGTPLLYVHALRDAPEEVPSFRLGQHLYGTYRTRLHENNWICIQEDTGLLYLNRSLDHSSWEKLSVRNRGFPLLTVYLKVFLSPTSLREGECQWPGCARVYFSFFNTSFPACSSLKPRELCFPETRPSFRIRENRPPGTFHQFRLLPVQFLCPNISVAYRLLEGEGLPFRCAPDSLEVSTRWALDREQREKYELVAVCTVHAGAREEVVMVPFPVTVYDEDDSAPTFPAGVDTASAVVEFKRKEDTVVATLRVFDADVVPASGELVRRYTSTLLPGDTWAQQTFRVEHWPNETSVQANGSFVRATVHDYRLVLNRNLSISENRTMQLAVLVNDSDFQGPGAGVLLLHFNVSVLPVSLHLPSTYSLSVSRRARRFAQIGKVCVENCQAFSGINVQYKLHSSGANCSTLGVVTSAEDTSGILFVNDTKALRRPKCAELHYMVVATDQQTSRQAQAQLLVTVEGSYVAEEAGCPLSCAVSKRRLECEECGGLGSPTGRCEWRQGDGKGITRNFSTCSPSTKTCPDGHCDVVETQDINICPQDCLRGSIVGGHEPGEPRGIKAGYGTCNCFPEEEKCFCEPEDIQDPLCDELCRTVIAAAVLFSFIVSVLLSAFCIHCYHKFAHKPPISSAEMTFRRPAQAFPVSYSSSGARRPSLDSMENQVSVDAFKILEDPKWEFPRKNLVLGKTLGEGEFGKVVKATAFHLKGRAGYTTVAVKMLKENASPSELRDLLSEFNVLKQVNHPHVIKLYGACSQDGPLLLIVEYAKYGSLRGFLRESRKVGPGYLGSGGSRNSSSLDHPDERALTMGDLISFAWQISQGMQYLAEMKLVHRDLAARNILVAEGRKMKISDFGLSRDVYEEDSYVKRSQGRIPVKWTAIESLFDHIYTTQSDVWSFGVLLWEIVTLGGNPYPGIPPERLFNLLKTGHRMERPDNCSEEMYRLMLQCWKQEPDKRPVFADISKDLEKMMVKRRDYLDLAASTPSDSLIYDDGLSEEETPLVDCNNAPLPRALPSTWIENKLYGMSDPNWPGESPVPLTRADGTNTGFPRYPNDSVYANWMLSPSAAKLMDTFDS

## COc1cc(N2CCC(N3CCN(C)CC3)CC2)ccc1Nc1ncc2c(n1)N(C)c1ccccc1C(=O)N2C
[1]
  residual activity: 99%
[2]
  inhibition: 100%
[3]
  inhibition: 83%
[4]
  inhibition: 31%
[5]
  residual activity: 89%
[6]
  inhibition: 100%
[7]
  inhibition: 100%
[8]
  inhibition: 95%
[9]
  inhibition: 100%
[10]
  inhibition: 100%
[11]
  residual activity: 99%
[12]
  inhibition: 65%
[13]
  residual activity: 94%
[14]
  inhibition: 96%
[15]
  inhibition: 100%
[16]
  residual activity: 87%
[17]
  residual activity: 95%
[18]
  inhibition: 80%
[19]
  inhibition: 84%
[20]
  inhibition: 100%
[21]
  residual activity: 99%
[22]
  residual activity: 88%
[23]
  inhibition: 100%
[24]
  inhibition: 100%
[25]
  inhibition: 100%
[26]
  inhibition: 74%
[27]
  inhibition: 100%
[28]
  inhibition: 100%
[29]
  inhibition: 78%
[30]
  inhibition: 100%
